{
  "source": "PubChem BioAssay (NCI)",
  "experiment_in_all_cases": "inhibition of tumour cell growth, NCI panel, 384-well format",
  "key": {"[1]": {"test_system": "MALME-3M melanoma"}, "[2]": {"test_system": "HS 578T breast"}, "[3]": {"test_system": "NCI/ADR-RES ovarian"}, "[4]": {"test_system": "BT-549 breast"}, "[5]": {"test_system": "MDA-MB-435 melanoma"}, "[6]": {"test_system": "HL-60(TB) leukemia"}, "[7]": {"test_system": "SNB-75 CNS"}, "[8]": {"test_system": "DU-145 prostate"}, "[9]": {"test_system": "CAKI-1 renal"}, "[10]": {"test_system": "OVCAR-3 ovarian"}, "[11]": {"test_system": "HCT-15 colon"}, "[12]": {"test_system": "SF-268 CNS"}, "[13]": {"test_system": "TK-10 renal"}, "[14]": {"test_system": "A498 renal"}, "[15]": {"test_system": "SK-MEL-28 melanoma"}, "[16]": {"test_system": "LOX IMVI melanoma"}, "[17]": {"test_system": "OVCAR-8 ovarian"}, "[18]": {"test_system": "U251 glioblastoma"}, "[19]": {"test_system": "EKVX NSCLC"}, "[20]": {"test_system": "COLO 205 colon"}, "[21]": {"test_system": "MCF7 breast"}, "[22]": {"test_system": "HCT-116 colon"}, "[23]": {"test_system": "RXF 393 renal"}, "[24]": {"test_system": "SK-MEL-5 melanoma"}, "[25]": {"test_system": "SN12C renal"}, "[26]": {"test_system": "NCI-H322M lung"}, "[27]": {"test_system": "HOP-62 NSCLC"}, "[28]": {"test_system": "NCI-H226 lung"}, "[29]": {"test_system": "RPMI-8226 leukemia"}},
  "note": "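At the GI50, growth is halved. TGI marks complete inhibition of growth.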",
  "data": [
    {"smiles": "COc1cc(N2CCC(N)CC2)ccc1Nc1ncc(Cl)c(-c2c[nH]c3ccccc23)n1", "values": [
      {"measurement": "GI50", "setting": "[1]", "value": 0.172, "unit": "µM"},
      {"measurement": "TGI", "setting": "[1]", "value": 1.51, "unit": "µM"},
      {"measurement": "GI50", "setting": "[2]", "value": 0.651, "unit": "µM"},
      {"measurement": "TGI", "setting": "[2]", "value": 1.87, "unit": "µM"},
      {"measurement": "GI50", "setting": "[3]", "value": 1.48, "unit": "µM"},
      {"measurement": "TGI", "setting": "[3]", "value": 2.81, "unit": "µM"},
      {"measurement": "GI50", "setting": "[4]", "value": 1.14, "unit": "µM"},
      {"measurement": "TGI", "setting": "[4]", "value": 2.36, "unit": "µM"},
      {"measurement": "GI50", "setting": "[5]", "value": 0.395, "unit": "µM"},
      {"measurement": "TGI", "setting": "[5]", "value": 1.79, "unit": "µM"},
      {"measurement": "GI50", "setting": "[6]", "value": 0.0214, "unit": "µM"},
      {"measurement": "TGI", "setting": "[6]", "value": 0.424, "unit": "µM"},
      {"measurement": "GI50", "setting": "[7]", "value": 0.322, "unit": "µM"},
      {"measurement": "TGI", "setting": "[7]", "value": 1.44, "unit": "µM"},
      {"measurement": "GI50", "setting": "[8]", "value": 0.389, "unit": "µM"},
      {"measurement": "TGI", "setting": "[8]", "value": 1.71, "unit": "µM"},
      {"measurement": "GI50", "setting": "[9]", "value": 0.252, "unit": "µM"},
      {"measurement": "TGI", "setting": "[9]", "value": 1.07, "unit": "µM"},
      {"measurement": "GI50", "setting": "[10]", "value": 0.666, "unit": "µM"},
      {"measurement": "TGI", "setting": "[10]", "value": 2.04, "unit": "µM"},
      {"measurement": "GI50", "setting": "[11]", "value": 0.265, "unit": "µM"},
      {"measurement": "TGI", "setting": "[11]", "value": 1.46, "unit": "µM"},
      {"measurement": "GI50", "setting": "[12]", "value": 1.15, "unit": "µM"},
      {"measurement": "TGI", "setting": "[12]", "value": 2.4, "unit": "µM"},
      {"measurement": "GI50", "setting": "[13]", "value": 0.988, "unit": "µM"},
      {"measurement": "TGI", "setting": "[13]", "value": 2.18, "unit": "µM"},
      {"measurement": "GI50", "setting": "[14]", "value": 0.296, "unit": "µM"},
      {"measurement": "TGI", "setting": "[14]", "value": 1.33, "unit": "µM"},
      {"measurement": "GI50", "setting": "[15]", "value": 1.27, "unit": "µM"},
      {"measurement": "TGI", "setting": "[15]", "value": 2.53, "unit": "µM"},
      {"measurement": "GI50", "setting": "[16]", "value": 0.541, "unit": "µM"},
      {"measurement": "TGI", "setting": "[16]", "value": 1.86, "unit": "µM"},
      {"measurement": "GI50", "setting": "[17]", "value": 1.17, "unit": "µM"},
      {"measurement": "TGI", "setting": "[17]", "value": 2.41, "unit": "µM"},
      {"measurement": "GI50", "setting": "[18]", "value": 1.21, "unit": "µM"},
      {"measurement": "TGI", "setting": "[18]", "value": 2.48, "unit": "µM"},
      {"measurement": "GI50", "setting": "[19]", "value": 0.215, "unit": "µM"},
      {"measurement": "TGI", "setting": "[19]", "value": 1.47, "unit": "µM"},
      {"measurement": "GI50", "setting": "[20]", "value": 0.0441, "unit": "µM"},
      {"measurement": "TGI", "setting": "[20]", "value": 1.07, "unit": "µM"},
      {"measurement": "GI50", "setting": "[21]", "value": 0.0595, "unit": "µM"},
      {"measurement": "TGI", "setting": "[21]", "value": 1.22, "unit": "µM"},
      {"measurement": "GI50", "setting": "[22]", "value": 0.361, "unit": "µM"},
      {"measurement": "TGI", "setting": "[22]", "value": 1.58, "unit": "µM"},
      {"measurement": "GI50", "setting": "[23]", "value": 0.739, "unit": "µM"},
      {"measurement": "TGI", "setting": "[23]", "value": 2.05, "unit": "µM"},
      {"measurement": "GI50", "setting": "[24]", "value": 0.61, "unit": "µM"},
      {"measurement": "TGI", "setting": "[24]", "value": 2.04, "unit": "µM"},
      {"measurement": "GI50", "setting": "[25]", "value": 0.513, "unit": "µM"},
      {"measurement": "TGI", "setting": "[25]", "value": 1.86, "unit": "µM"},
      {"measurement": "GI50", "setting": "[26]", "value": 0.254, "unit": "µM"},
      {"measurement": "TGI", "setting": "[26]", "value": 1.42, "unit": "µM"},
      {"measurement": "GI50", "setting": "[27]", "value": 1.22, "unit": "µM"},
      {"measurement": "TGI", "setting": "[27]", "value": 2.49, "unit": "µM"},
      {"measurement": "GI50", "setting": "[28]", "value": 0.112, "unit": "µM"},
      {"measurement": "TGI", "setting": "[28]", "value": 0.663, "unit": "µM"},
      {"measurement": "GI50", "setting": "[29]", "value": 0.476, "unit": "µM"}
    ]}
  ]
}
